The values that follow come from patent USRE41253E1, “Antineoplastic combinations” (Wyeth, priority 2001, dated 2010).

The subject of the test is HCT 116 colon adenocarcinoma cells. As to the kind of experiment: Cell Proliferation Procedure (SRB, three days). Format: cell-based. The following applies: for IC50: growth for 3 days, SRB, single agent, read-out: IC50 value, drug alone. The procedure:
Cell Proliferation Procedure—HCT 116 colon adenocarcinoma cells were maintained in RPMI 1640 medium (Life Technologies, Inc., Gaithersburg, Md.) supplemented with 10% fetal bovine serum (FBS, Life Technologies) and 50 μg/ml gentamicin (Life Technologies) under 7% CO2 at 37° C. Cells were plated in 96-well microtiter dishes (6000 cells/well) in 200 μl RPMI 1640 medium containing 5% FBS and 50 μg/ml gentamicin and incubated overnight at 37° C. Compound dilutions were prepared in the same medium, at 5× final concentration, and 50 μl of the drug dilution was added to the cell-containing wells. For studies involving combinations of two drugs, serial dilutions of one compound were prepared in the presence of a fixed dose of a second compound. Alternatively, a checkerboard dilution series was employed. Cells were cultured for three days in the presence of the drugs. Untreated cells were included as controls. The percentage of surviving cells was determined using sulforhodamine B (SRB, Sigma-Aldrich, St Louis, Mo.), a protein binding dye. Cellular protein was precipitated in each well by the addition of 50 μl of 50% cold trichloroacetic acid. After 1 hour, the plates were washed extensively in water and dried. SRB dye reagent (0.4% SRB in 1% acetic acid, 80 μl per well) was added and plates were kept at room temperature for ten minutes. Plates were then washed thoroughly in 1% acetic acid and dried. Cell-associated dye was dissolved in 10 mM Tris (150 μl) and the absorbance was read at 540 nm in a microtiter plate reader. The concentration of compound that caused a fixed percentage inhibition of growth was determined by plotting cell survival (relative to untreated cells) against the compound dose.

Where [1] appears, read: Homo sapiens, HCT-116, 72 h, HCT116 cells.

Structures are written as SMILES.

As a reminder, the IC50 is the concentration that inhibits the measured activity by half. Take `CCOc1cc2ncc(C#N)c(Nc3ccc(F)c(Cl)c3)c2cc1NC(=O)C=CCN(C)C` [EKB-569, 4-dimethylamino-but-2-enoic acid [4-(3-chloro-4-fluoro-phenylamino)-3-cyano-7-ethoxy-quinolin-6-yl]-amide]: under setting [1], the half-maximal inhibitory concentration (IC50) amounted to 0.31 µg/mL.
What is called inhibition is the drop in the measured response relative to a control, in per cent. Turning to `CO[C@H]1C[C@@H]2CC[C@@H](C)[C@@](O)(O2)C(=O)C(=O)N2CCCC[C@H]2C(=O)O[C@H]([C@H](C)C[C@@H]2CC[C@@H](OC(=O)C(C)(CO)CO)[C@H](OC)C2)CC(=O)[C@H](C)/C=C(\C)[C@@H](O)[C@@H](OC)C(=O)[C@H](C)C[C@H](C)/C=C/C=C/C=C/1C` [CCI-779, rapamycin 42-ester with 3-hydroxy-2-(hydroxymethyl)-2-methylpropionic acid], the “high doses that inhibit the cells (cells somewhat resistant)” value (HCT 116 cells, CCI-779 alone) is 5 to 10 µg/mL. In addition, where the note is “Homo sapiens, HCT-116, 72 h, HCT116 cells, 3 days, 0.026 μg/ml CCI-779 alone”, the inhibition at 0.026 µg/mL was determined as 36%. Besides, the inhibition at 2.08 µg/mL (Homo sapiens, HCT-116, 72 h, HCT116 cells, 3 days, 2.08 μg/ml CCI-779 alone, read-out: inhibition of growth when administered alone) is 41%. Besides, under setting [1], the IC50 was 4.3 µg/mL.
